pIC50: −log10 of the molar value. Blank lines part the entries; values can stand above or below the molecule they belong to. Active and inactive are the calls of the source. The rule behind the calls is not given here.
Tests used:
[1] = Antioxidant activity in rat liver microsome membrane assessed as inhibition of lipid peroxidation after 45 mins by TBARS-based spectrophotometric assay; assay type: functional, microsomes
[2] = test system: Radical scavenging activity; experiment: Antioxidant activity assessed as DPPH radical scavenging activity up to 50 uM measured within 15 mins; assay type: functional
[3] = test system: Radical scavenging activity; experiment: Antioxidant activity assessed as DPPH radical scavenging activity after 30 mins; assay type: functional
Homo sapiens [4] = species on record: Homo sapiens; experiment: Antioxidant activity against CuSO4-induced human LDL oxidation assessed as prolongation of lag time by spectrophotometric analysis; assay type: functional
Homo sapiens [5] = species on record: Homo sapiens; experiment: Antioxidant activity against CuSO4-induced human LDL oxidation assessed as inhibition of rate of conjugate diene formation at 1 uM by spectrophotometric analysis; assay type: functional
Homo sapiens [6] = species on record: Homo sapiens; experiment: Antioxidant activity against CuSO4-induced human LDL oxidation assessed as lag time at 0.10 uM by spectrophotometric analysis (reference value: 122 mins); assay type: functional
Homo sapiens [7] = species on record: Homo sapiens; experiment: Antioxidant activity against CuSO4-induced human LDL oxidation assessed as lag time at 0.50 uM by spectrophotometric analysis (reference value: 122 mins); assay type: functional
Homo sapiens [8] = species on record: Homo sapiens; experiment: Antioxidant activity against CuSO4-induced human LDL oxidation assessed as delta-lag time at 0.50 uM by spectrophotometric analysis; assay type: functional
Homo sapiens [9] = species on record: Homo sapiens; experiment: Antioxidant activity against CuSO4-induced human LDL oxidation assessed as delta-lag time at 0.10 uM by spectrophotometric analysis; assay type: functional
Homo sapiens [10] = species on record: Homo sapiens; experiment: Antioxidant activity against CuSO4-induced human LDL oxidation assessed as increase in lag time at 0.50 uM by spectrophotometric analysis; assay type: functional
Homo sapiens [11] = species on record: Homo sapiens; experiment: Antioxidant activity against CuSO4-induced human LDL oxidation assessed as increase in lag time at 1 uM by spectrophotometric analysis; assay type: functional
Homo sapiens [12] = species on record: Homo sapiens; experiment: Antioxidant activity against CuSO4-induced human LDL oxidation assessed as increase in lag time at 0.10 uM by spectrophotometric analysis; assay type: functional
Homo sapiens [13] = species on record: Homo sapiens; experiment: Antioxidant activity against CuSO4-induced human LDL oxidation assessed as inhibition of rate of conjugate diene formation at 0.50 uM by spectrophotometric analysis; assay type: functional
Homo sapiens [14] = species on record: Homo sapiens; experiment: Antioxidant activity against CuSO4-induced human LDL oxidation assessed as inhibition of rate of conjugate diene formation at 0.10 uM by spectrophotometric analysis; assay type: functional
[15] = biological target: T1, Squalene synthase (Rattus norvegicus) (UniProt Q02769); experiment: (§1) Inhibition of squalene synthase in rat liver microsomes assessed as decrease in conversion of [3H]FPP to squalene
T1 sequence (whole entry): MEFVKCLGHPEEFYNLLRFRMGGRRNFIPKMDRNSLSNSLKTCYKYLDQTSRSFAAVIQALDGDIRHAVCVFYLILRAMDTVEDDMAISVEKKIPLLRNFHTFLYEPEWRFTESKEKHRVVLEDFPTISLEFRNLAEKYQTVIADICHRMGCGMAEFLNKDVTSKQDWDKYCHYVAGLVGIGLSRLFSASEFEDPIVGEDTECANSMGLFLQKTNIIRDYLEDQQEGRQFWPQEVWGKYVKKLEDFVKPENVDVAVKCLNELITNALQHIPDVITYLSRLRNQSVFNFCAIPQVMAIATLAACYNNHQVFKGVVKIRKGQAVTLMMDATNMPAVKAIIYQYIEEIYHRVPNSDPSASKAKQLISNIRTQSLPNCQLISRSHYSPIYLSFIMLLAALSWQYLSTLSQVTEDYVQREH

Squalene synthase = biological target: T2, Squalene synthase (Rattus norvegicus, UniProt Q02769); experiment: as §1
T2 sequence (Q02769 whole entry): T1 sequence (whole entry)

[16] = biological target: T3, Prostaglandin G/H synthase 1 (Bos taurus) (UniProt O62664); experiment: Inhibition of bovine COX-1 assessed as PGF2-alpha formation using arachidonic acid as substrate at 20 uM by enzyme immunoassay
T3 sequence (whole entry): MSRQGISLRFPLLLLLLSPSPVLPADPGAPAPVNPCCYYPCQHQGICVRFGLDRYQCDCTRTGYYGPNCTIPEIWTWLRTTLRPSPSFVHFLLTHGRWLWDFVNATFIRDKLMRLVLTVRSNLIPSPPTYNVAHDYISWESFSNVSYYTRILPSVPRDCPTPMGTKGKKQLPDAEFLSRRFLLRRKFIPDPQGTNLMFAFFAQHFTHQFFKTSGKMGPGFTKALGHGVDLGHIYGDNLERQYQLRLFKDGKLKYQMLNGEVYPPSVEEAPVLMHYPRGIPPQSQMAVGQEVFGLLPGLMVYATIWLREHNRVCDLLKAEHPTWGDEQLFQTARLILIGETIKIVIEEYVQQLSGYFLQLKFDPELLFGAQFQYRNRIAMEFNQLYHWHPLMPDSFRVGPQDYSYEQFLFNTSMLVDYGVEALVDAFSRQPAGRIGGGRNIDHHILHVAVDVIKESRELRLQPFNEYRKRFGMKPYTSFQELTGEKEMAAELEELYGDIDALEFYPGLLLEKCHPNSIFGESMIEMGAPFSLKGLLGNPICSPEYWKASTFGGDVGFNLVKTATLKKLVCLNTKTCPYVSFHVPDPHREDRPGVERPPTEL

Glycine max = experiment: Inhibition of soybean lipoxygenase using sodium linoleate as substrate up to 100 uM measured for 6 mins
Mus musculus [17] = experiment: In vivo antiinflammatory activity in mouse assessed as decrease in carrageenan-induced paw edema at 0.30 mmol/kg, ip administered immediately after carrageenan injection measured after 3.5 hrs; assay type: functional
Rattus norvegicus [18] = experiment: In vivo antidyslipidemic activity against Triton WR 1339-induced hyperlipidemic Wistar rat model assessed as decrease in total cholesterol level in plasma at 56 umol/kg, ip administered as single dose 1 hr after Triton WR 1339 challenge measured after 24 hrs; assay type: functional
Rattus norvegicus [19] = experiment: In vivo antidyslipidemic activity against Triton WR 1339-induced hyperlipidemic Wistar rat model assessed as decrease in LDL-cholesterol level in plasma at 56 umol/kg, ip administered as single dose 1 hr after Triton WR 1339 challenge measured after 24 hrs; assay type: functional
Rattus norvegicus [20] = experiment: In vivo antidyslipidemic activity against Triton WR 1339-induced hyperlipidemic Wistar rat model assessed as decrease in triglyceride level in plasma at 56 umol/kg, ip administered as single dose 1 hr after Triton WR 1339 challenge measured after 24 hrs; assay type: functional
Mus musculus [21] = experiment: Antidyslipidemic activity in high-fat diet (35.5% w/w fat) fed SKH-2 mouse assessed as decrease in total cholesterol level in plasma at 56 umol/kg, ip bid for 28 days measured on day 28; assay type: functional; details: SKH-2, Plasma, 672 h
Mus musculus [22] = experiment: Antidyslipidemic activity in high-fat diet (35.5% w/w fat) fed SKH-2 mouse assessed as decrease in LDL level in plasma at 56 umol/kg, ip bid for 28 days measured on day 28; assay type: functional; details: SKH-2, Plasma, 672 h
Mus musculus [23] = experiment: Antidyslipidemic activity in high-fat diet (35.5% w/w fat) fed SKH-2 mouse assessed as HDL level in plasma at 56 umol/kg, ip bid for 28 days measured on day 28; assay type: functional, organism-based
Mus musculus [24] = experiment: Antidyslipidemic activity in high-fat diet (35.5% w/w fat) fed SKH-2 mouse assessed as triglyceride level in plasma at 56 umol/kg, ip bid for 28 days measured on day 28; assay type: functional, organism-based
Mus musculus [25] = experiment: Antidyslipidemic activity in high-fat diet (35.5% w/w fat) fed SKH-2 mouse assessed as HDL/LDL ratio in plasma at 56 umol/kg, ip bid for 28 days measured on day 28 (reference value: 0.5 no unit); assay type: functional
Mus musculus [26] = experiment: In vivo antioxidant activity in high-fat diet (35.5% w/w fat) fed SKH-2 mouse assessed as reduction in malondialdehyde level in plasma at 56 umol/kg, ip bid for 28 days measured on day 28; assay type: functional; details: SKH-2, Plasma, 672 h
Mus musculus [27] = experiment: Effect on body weight in high-fat diet (35.5% w/w fat) fed SKH-2 mouse at 56 umol/kg, ip bid for 28 days; assay type: ADME, organism-based; details: in vivo, 672 h
Mus musculus [28] = experiment: Effect on food intake high-fat diet fed SKH-2 mouse at 56 umol/kg, ip bid for 28 days; assay type: ADME, organism-based; details: in vivo, 672 h
Mus musculus [29] = experiment: Effect on blood glucose level in high-fat diet (35.5% w/w fat) fed SKH-2 mouse at 56 umol/kg, ip bid for 28 days; assay type: ADME, organism-based; details: in vivo, 672 h
Mus musculus [30] = experiment: Toxicity in high-fat diet (35.5% w/w fat) fed SKH-2 mouse at 56 umol/kg, ip bid for 28 days by macroscopic analysis; assay type: organism-based; details: in vivo, 672 h
Mus musculus [31] = experiment: Effect on food intake in chronic high-fat diet (2.5 w/w cholesterol, 0.5% w/w cholic acid, 10% w/w peanut oil) fed SKH-2 mouse at 56 umol/kg, ip bid for 30 days; assay type: ADME, organism-based; details: in vivo, 720 h
Mus musculus [32] = experiment: Effect on body weight in chronic high-fat diet (2.5 w/w cholesterol, 0.5% w/w cholic acid, 10% w/w peanut oil) fed SKH-2 mouse at 56 umol/kg, ip bid for 30 days; assay type: ADME, organism-based; details: in vivo, 720 h
Mus musculus [33] = experiment: Effect on blood glucose level in chronic high-fat diet (2.5 w/w cholesterol, 0.5% w/w cholic acid, 10% w/w peanut oil) fed SKH-2 mouse at 56 umol/kg, ip bid for 30 days; assay type: ADME, organism-based; details: in vivo, 720 h
Mus musculus [34] = experiment: Antidyslipidemic activity in chronic high-fat diet (2.5 w/w cholesterol, 0.5% w/w cholic acid, 10% w/w peanut oil) fed SKH-2 mouse assessed as HDL/LDL ratio in plasma at 56 umol/kg, ip bid for 30 days measured on day 30 (reference value: 0.2 no unit); assay type: functional
Mus musculus [35] = experiment: Antidyslipidemic activity in chronic high-fat diet (2.5 w/w cholesterol, 0.5% w/w cholic acid, 10% w/w peanut oil) fed SKH-2 mouse assessed as decrease in total cholesterol level in plasma at 56 umol/kg, ip bid for 21 days; assay type: functional; details: SKH-2, Plasma, 504 h
Mus musculus [36] = experiment: Antidyslipidemic activity in chronic high-fat diet (2.5 w/w cholesterol, 0.5% w/w cholic acid, 10% w/w peanut oil) fed SKH-2 mouse assessed as decrease in LDL level in plasma at 56 umol/kg, ip bid for 21 days; assay type: functional; details: SKH-2, Plasma, 504 h
Mus musculus [37] = experiment: Antidyslipidemic activity in chronic high-fat diet (2.5 w/w cholesterol, 0.5% w/w cholic acid, 10% w/w peanut oil) fed SKH-2 mouse assessed as increase in HDL level in plasma at 56 umol/kg, ip bid for 30 days measured on day 30 relative to control; assay type: functional
Mus musculus [38] = experiment: Antidyslipidemic activity in chronic high-fat diet (2.5 w/w cholesterol, 0.5% w/w cholic acid, 10% w/w peanut oil) fed SKH-2 mouse assessed as increase in HDL level in plasma at 56 umol/kg, ip bid for 30 days measured on day 30 relative to day 0; assay type: functional

- pIC50 [1]: 6.03
- pIC50 [3]: 3.73
- inhibition [15]: Dose-dependent effect
- pIC50 (Squalene synthase): 4.92
- inhibition [16]: 55%
- inhibition (Glycine max): inactive
SMILES: CN1CC(O)(c2ccc3c(c2)Nc2ccccc2S3)OC2CCCCC21 (racemic)
- Activity [2]: Active
- Activity (Homo sapiens [4]): Dose-dependent effect
- inhibition (Homo sapiens [5]): 100%
- TIME (Homo sapiens [6]): 1.82 h
- TIME (Homo sapiens [7]): 3.33 h
- TIME (Homo sapiens [8]): 1.3 h
- TIME (Homo sapiens [9]): -0.217 h
- Activity (Homo sapiens [10]): 64%
- Activity (Homo sapiens [11]): 100%
- Activity (Homo sapiens [12]): 0%
- inhibition (Homo sapiens [13]): 41%
- inhibition (Homo sapiens [14]): 0%
- inhibition in vivo at 300 µmol/kg (Mus musculus [17]): 41%
- inhibition in vivo at 56 µmol/kg (Rattus norvegicus [18]): 50%
- inhibition in vivo at 56 µmol/kg (Rattus norvegicus [19]): 68%
- inhibition in vivo at 56 µmol/kg (Rattus norvegicus [20]): 77%
- inhibition in vivo at 56 µmol/kg (Mus musculus [21]): 54%
- inhibition in vivo at 56 µmol/kg (Mus musculus [22]): 76%
- Activity (Mus musculus [23]): inactive
- Activity (Mus musculus [24]): inactive
- Ratio (Mus musculus [25]): 1.7
- inhibition in vivo at 56 µmol/kg (Mus musculus [26]): 38%
- Activity (Mus musculus [27]): Non-toxic
- Activity (Mus musculus [28]): Non-toxic
- Activity (Mus musculus [29]): Non-toxic
- Activity (Mus musculus [30]): Non-toxic

- pIC50 [1]: 6.01
- pIC50 [3]: 4.11
- inhibition [15]: Dose-dependent effect
- pIC50 (Squalene synthase): 5.44
- inhibition [16]: 67%
SMILES: CN1CC(O)(c2ccc3c(c2)Nc2ccccc2S3)Sc2ccccc21 (stereo unspecified)
- Activity (Mus musculus [31]): Non-toxic
- Activity (Mus musculus [32]): Non-toxic
- Activity (Mus musculus [33]): Non-toxic
- Ratio (Mus musculus [34]): 1.3
- Activity [2]: Active
- inhibition in vivo at 56 µmol/kg (Mus musculus [35]): 48%
- inhibition in vivo at 56 µmol/kg (Mus musculus [36]): 80%
- Activity (Mus musculus [37]): 32%
- Activity (Mus musculus [38]): 100%

From ChEMBL document CHEMBL3232866, “Design of novel potent antihyperlipidemic agents with antioxidant/anti-inflammatory properties: exploiting phenothiazine's strong antioxidant activity” (J Med Chem, 2014)
